Experimental data published in ChEMBL document CHEMBL1201862, “PubChem BioAssay data set” (2004).
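Protocol summary: plate cells (96-well), add compound at 5 concentrations, incubate 48 h, interpolate endpoints linearly. GI50 marks 50% less growth.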 Active and inactive are the calls of the source. Rule as the data show it: active = GI50 up to about 1.1 µM and inactive = higher.

How the values were obtained:
Test in all cases: NCI tumour cell line growth inhibition, 48 h
786-0 = test system: 786-0
A498 = test system: A498
A549 = test system: A549
ACHN = test system: ACHN
CAKI-1 = test system: CAKI-1
CCRF-CEM = test system: CCRF-CEM
COLO 205 = test system: COLO 205
DLD-1 = test system: DLD-1
DMS-114 = test system: DMS-114
DMS-273 = test system: DMS-273
EKVX = test system: EKVX
HCC 2998 = test system: HCC 2998
HCT-116 = test system: HCT-116
HCT-15 = test system: HCT-15
HL-60 = test system: HL-60
HOP-18 = test system: HOP-18
HOP-92 = test system: HOP-92
HT-29 = test system: HT-29
IGROV-1 = test system: IGROV-1
K562 = test system: K562
KM-20L2 = test system: KM-20L2
KM12 = test system: KM12
LOX IMVI = test system: LOX IMVI
LXFL 529 = test system: LXFL 529
M14 = test system: M14
M19-MEL = test system: M19-MEL
MOLT-4 = test system: MOLT-4
Malme-3M = test system: Malme-3M
NCI-H226 = test system: NCI-H226
NCI-H23 = test system: NCI-H23
NCI-H522 = test system: NCI-H522
OVCAR-3 = test system: OVCAR-3
OVCAR-4 = test system: OVCAR-4
OVCAR-5 = test system: OVCAR-5
OVCAR-8 = test system: OVCAR-8
RPMI-8226 = test system: RPMI-8226
RXF 393 = test system: RXF 393
RXF 631 = test system: RXF 631
SF-268 = test system: SF-268
SF-295 = test system: SF-295
SF-539 = test system: SF-539
SK-MEL-28 = test system: SK-MEL-28
SK-MEL-2 = test system: SK-MEL-2
SK-MEL-5 = test system: SK-MEL-5
SK-OV-3 = test system: SK-OV-3
SN12C = test system: SN12C
SNB-19 = test system: SNB-19
SNB-75 = test system: SNB-75
SNB-78 = test system: SNB-78
SW-620 = test system: SW-620
TK-10 = test system: TK-10
U-251 = test system: U-251
UACC-257 = test system: UACC-257
UACC-62 = test system: UACC-62
UO-31 = test system: UO-31
NCI-H460 = test system: NCI-H460
SR = test system: SR
XF498 = test system: XF498

## CC(=O)OC1(C)C(=O)OC1(C)C(C)=O (stereo unspecified)
786-0
  GI50: > 100 µM (inactive)
A498
  GI50: > 100 µM (inactive)
A549
  GI50: > 100 µM (inactive)
ACHN
  GI50: > 100 µM (inactive)
CAKI-1
  GI50: > 100 µM (inactive)
CCRF-CEM
  GI50: > 100 µM (inactive)
COLO 205
  GI50: > 100 µM (inactive)
DLD-1
  GI50: > 100 µM (inactive)
DMS-114
  GI50: > 100 µM (inactive)
DMS-273
  GI50: > 100 µM (inactive)
EKVX
  GI50: > 100 µM (inactive)
HCC 2998
  GI50: > 100 µM (inactive)
HCT-116
  GI50: > 100 µM (inactive)
HCT-15
  GI50: > 100 µM
HL-60
  GI50: > 100 µM (inactive)
HOP-18
  GI50: > 100 µM (inactive)
HOP-92
  GI50: > 100 µM (inactive)
HT-29
  GI50: > 100 µM (inactive)
IGROV-1
  GI50: > 100 µM (inactive)
K562
  GI50: > 100 µM (inactive)
KM-20L2
  GI50: > 100 µM (inactive)
KM12
  GI50: > 100 µM (inactive)
LOX IMVI
  GI50: > 100 µM (inactive)
LXFL 529
  GI50: > 100 µM (inactive)
M14
  GI50: > 100 µM (inactive)
M19-MEL
  GI50: > 100 µM (inactive)
MOLT-4
  GI50: > 100 µM (inactive)
Malme-3M
  GI50: > 100 µM (inactive)
NCI-H226
  GI50: > 100 µM (inactive)
NCI-H23
  GI50: > 100 µM (inactive)
NCI-H522
  GI50: > 100 µM (inactive)
OVCAR-3
  GI50: > 100 µM (inactive)
OVCAR-4
  GI50: > 100 µM (inactive)
OVCAR-5
  GI50: > 100 µM (inactive)
OVCAR-8
  GI50: > 100 µM (inactive)
RPMI-8226
  GI50: > 100 µM (inactive)
RXF 393
  GI50: > 100 µM (inactive)
RXF 631
  GI50: > 100 µM (inactive)
SF-268
  GI50: > 100 µM (inactive)
SF-295
  GI50: > 100 µM (inactive)
SF-539
  GI50: > 100 µM (inactive)
SK-MEL-28
  GI50: > 100 µM (inactive)
SK-MEL-2
  GI50: > 100 µM (inactive)
SK-MEL-5
  GI50: > 100 µM (inactive)
SK-OV-3
  GI50: > 100 µM (inactive)
SN12C
  GI50: > 100 µM (inactive)
SNB-19
  GI50: > 100 µM (inactive)
SNB-75
  GI50: > 100 µM (inactive)
SNB-78
  GI50: > 100 µM (inactive)
SW-620
  GI50: > 100 µM (inactive)
TK-10
  GI50: > 100 µM (inactive)
U-251
  GI50: > 100 µM (inactive)
UACC-257
  GI50: > 100 µM (inactive)
UACC-62
  GI50: > 100 µM (inactive)
UO-31
  GI50: > 100 µM (inactive)

## Nc1nc(=O)[nH]c2c1cnn2Cc1ccccc1
A498
  GI50: > 100 µM (inactive)
A549
  GI50: > 100 µM (inactive)
ACHN
  GI50: > 100 µM (inactive)
CAKI-1
  GI50: > 100 µM (inactive)
CCRF-CEM
  GI50: > 100 µM (inactive)
COLO 205
  GI50: > 100 µM (inactive)
DLD-1
  GI50: > 100 µM (inactive)
DMS-114
  GI50: > 100 µM (inactive)
DMS-273
  GI50: > 100 µM (inactive)
EKVX
  GI50: > 100 µM (inactive)
HCT-116
  GI50: > 100 µM (inactive)
HCT-15
  GI50: > 100 µM
HL-60
  GI50: > 100 µM (inactive)
HOP-18
  GI50: > 100 µM (inactive)
HOP-92
  GI50: > 100 µM (inactive)
HT-29
  GI50: > 100 µM (inactive)
IGROV-1
  GI50: > 100 µM (inactive)
K562
  GI50: > 100 µM (inactive)
KM-20L2
  GI50: 1.62 µM (inactive)
KM12
  GI50: > 100 µM (inactive)
LOX IMVI
  GI50: > 100 µM (inactive)
LXFL 529
  GI50: > 100 µM (inactive)
M14
  GI50: > 100 µM (inactive)
MOLT-4
  GI50: > 100 µM (inactive)
Malme-3M
  GI50: > 100 µM (inactive)
NCI-H226
  GI50: 1.41 µM (inactive)
NCI-H23
  GI50: 1.56 µM (inactive)
NCI-H460
  GI50: > 100 µM (inactive)
OVCAR-4
  GI50: > 100 µM (inactive)
OVCAR-5
  GI50: 1.47 µM (inactive)
OVCAR-8
  GI50: > 100 µM (inactive)
RPMI-8226
  GI50: > 100 µM (inactive)
RXF 393
  GI50: 1.4 µM (inactive)
RXF 631
  GI50: > 100 µM (inactive)
SF-268
  GI50: > 100 µM (inactive)
SF-295
  GI50: > 100 µM (inactive)
SF-539
  GI50: > 100 µM (inactive)
SK-MEL-28
  GI50: 1.88 µM (inactive)
SK-MEL-2
  GI50: > 100 µM (inactive)
SK-MEL-5
  GI50: > 100 µM (inactive)
SN12C
  GI50: > 100 µM (inactive)
SNB-19
  GI50: > 100 µM (inactive)
SNB-75
  GI50: > 100 µM (inactive)
SNB-78
  GI50: 1.46 µM (inactive)
SR
  GI50: > 100 µM (inactive)
SW-620
  GI50: > 100 µM (inactive)
TK-10
  GI50: 1.35 µM (inactive)
U-251
  GI50: 1.4 µM (inactive)
UACC-257
  GI50: > 100 µM (inactive)
UO-31
  GI50: > 100 µM (inactive)
XF498
  GI50: > 100 µM (inactive)
